From patent US6825230B2, “Spiro and dispiro 1,2,4-trixolane antimalarials” (Medicines for Malaria Venture MMV, priority 2002, dated 2004)
In brackets after ≈: the same amount, converted by molar mass. Read-outs that look alike come from different tables or passages of the source.

How the values were obtained:
[1] = system: chloroquine-resistant K1 strain of P. falciparum; experiment: In vitro antimalarial semiautomated microdilution assay ([3H]-hypoxanthine incorporation), K1 strain; assay type: cell-based, Plasmodium falciparum; details: Plasmodium falciparum
Procedure: (§1) Various OZ compounds were tested by the semiautomated microdilution assay against intraerythrocytic forms of Plasmodium falciparum derived from asynchronous stock cultures.
(§2) Fifty percent inhibitory concentration (IC50) were estimated by Logit regression analysis.

[2] = system: chloroquine-sensitive NF54 strain of P. falciparum; experiment: In vitro antimalarial semiautomated microdilution assay ([3H]-hypoxanthine incorporation), NF54 strain; assay type: cell-based, Plasmodium falciparum; details: Plasmodium falciparum
Procedure: as §1, §2

[3] = system: ANKA strain of P. berghei; experiment: Single dose STI in vivo screen in infected mice; set-up: species or system Plasmodium berghei; details: for Survival (days) 10 mg/kg po: single 10 mg/kg po in 3% ethanol and 7% Tween 80; for Survival (days) 10 mg/kg po / Survival (days) 10 mg/kg SSV po / Survival (days) 10 mg/kg sc: untreated 6-7 days; for Activity (%) 10 mg/kg po: single 10 mg/kg po in 3% ethanol and 7% Tween 80 on day 1 post-infection; for Activity (%) 10 mg/kg po / Activity (%) 10 mg/kg SSV po / Activity (%) 10 mg/kg sc: percent reduction in parasitemia on day 3; for Survival (days) 10 mg/kg SSV po: single 10 mg/kg po in SSV; for Activity (%) 10 mg/kg SSV po: single 10 mg/kg po in standard suspending vehicle (SSV) on day 1 post-infection; for Survival (days) 10 mg/kg sc: single 10 mg/kg sc in 3% ethanol and 7% Tween 80; for Activity (%) 10 mg/kg sc: single 10 mg/kg sc in 3% ethanol and 7% Tween 80 on day 1 post-infection
[4] = K1, 72 h, read-out: IC50 (ng/ml) K1, chloroquine-resistant K1 strain, 72 h incubation
[5] = NF54, 72 h, read-out: IC50 (ng/ml) NF54, chloroquine-sensitive NF54 strain, 72 h incubation
[6] = chloroquine-resistant K1 strain, 72 h incubation, read-out: IC50 (ng/ml) K1
[7] = chloroquine-sensitive NF54 strain, 72 h incubation, read-out: IC50 (ng/ml) NF54

SMILES	IC50 [1, 4] [ng/mL]	IC50 [2, 5] [ng/mL]	Survival (days) 10 mg/kg po [3]	Activity (%) 10 mg/kg po [3]	Survival (days) 10 mg/kg SSV po [3]	Activity (%) 10 mg/kg SSV po [3]	Survival (days) 10 mg/kg sc [3]	Activity (%) 10 mg/kg sc [3]	IC50 [1, 6] [ng/mL]	IC50 [2, 7] [ng/mL]
O=C(NO)[C@H]1CC[C@]2(CC1)OOC1(O2)C2CC3CC(C2)CC1C3 (some centres unmarked) [OZ116]	4.2 (≈ 13 nM)	3.3 (≈ 10.2 nM)	7.7 days	97%	8.3 days	96%	8.0 days	96%	–	–
NCC1(c2ccccc2)CCC2(CC1)OOC1(O2)C2CC3CC(C2)CC1C3 (centres unmarked) [OZ117]	2.1 (≈ 5.68 nM)	1.2 (≈ 3.25 nM)	7.0 days	95%	7.7 days	96%	8.7 days	99.94%	–	–
CC(=O)OC[C@H]1CC[C@]2(CC1)OOC1(O2)C2CC3CC(C2)CC1C3 (some centres unmarked) [OZ118]	–	–	7.0 days	99.0%	8.0 days	98%	8.3 days	99.57%	1 (≈ 2.97 nM)	0.24 (≈ 0.713 nM)
CCOC(=O)C1(C(=O)OCC)COC2(CCC3(CC2)OOC2(O3)C3CC4CC(C3)CC2C4)OC1 (centres unmarked) [OZ120, Adamantane-2-spiro-3′-11′,11′-bis(ethoxycarbonyl)-1′,2′,4′,9′,13′-pentaoxadispiro[4.2.5.2]pentadecane]	–	–	6.0 days	33%	5.7 days	8%	8.0 days	96%	1.2 (≈ 2.5 nM)	0.59 (≈ 1.23 nM)
OCC1(CO)COC2(CCC3(CC2)OOC2(O3)C3CC4CC(C3)CC2C4)OC1 (centres unmarked) [OZ121, Adamantane-2-spiro-3′-11′,11′-bis(hydroxymethyl)-1′,2′,4′,9′,13′-pentaoxadispiro[4.2.5.2]pentadecane]	0.96 (≈ 2.42 nM)	0.41 (≈ 1.03 nM)	7.3 days	91%	8.0 days	98%	7.3 days	99.61%	–	–
O=C(O)C1(C(=O)O)COC2(CCC3(CC2)OOC2(O3)C3CC4CC(C3)CC2C4)OC1 (centres unmarked) [OZ122, Adamantane-2-spiro-3′-11′,11′-dicarboxy-1′,2′,4′,9′,13′-pentaoxadispiro[4.2.5.2]pentadecane]	–	–	5.7 days	10%	5.3 days	3%	5.0 days	0%	> 100	> 100
BrC[C@H]1CC[C@]2(CC1)OOC1(O2)C2CC3CC(C2)CC1C3 (some centres unmarked) [OZ123]	–	–	8.0 days	99.66%	7.0 days	94%	16 days	99.96%	1.6 (≈ 4.48 nM)	1.9 (≈ 5.32 nM)
N#Cc1ccc(C2(c3ccccc3)OOC3(O2)C2CC4CC(C2)CC3C4)cc1 (centres unmarked) [OZ124]	–	–	6.3 days	72%	5.3 days	17%	7.0 days	86%	2.1 (≈ 5.62 nM)	1.7 (≈ 4.55 nM)
CCOC(=O)c1ccc(C2(c3ccc(C(=O)OCC)cc3)OOC3(O2)C2CC4CC(C2)CC3C4)cc1 (centres unmarked) [OZ125, Adamantane-2-spiro-3′-5′,5′-bis[4′-(ethoxycarbonyl)phenyl]-1′,2′,4′-trioxolane]	–	–	5.3 days	8%	5.7 days	0%	6.0 days	0%	68 (≈ 138 nM)	> 100
C=C1COC2(CCC3(CC2)OOC2(O3)C3CC4CC(C3)CC2C4)OC1 (centres unmarked) [OZ128, Adamantane-2-spiro-3′-11′-methylene-1′,2′,4′,9′,13′-pentaoxadispiro[4.2.5.2]pentadecane]	0.59 (≈ 1.69 nM)	1.1 (≈ 3.16 nM)	8.3 days	99.93%	8.7 days	99.95%	11.7 days	99.98%	–	–
CC(C)(CO)NC(=O)[C@H]1CC[C@]2(CC1)OOC1(O2)C2CC3CC(C2)CC1C3 (some centres unmarked) [OZ129]	10 (≈ 26.4 nM)	> 10	5.3 days	0%	5.7 days	4%	5.7 days	0%	–	–
O=S(=O)(Cc1ccccc1)N1CCC2(CC1)OOC1(O2)C2CC3CC(C2)CC1C3 (centres unmarked) [OZ131, Adamantane-2-spiro-3′-8′-phenylmethanesulfonyl-1′,2′,4′-trioxa-8′-azaspiro[4.5]decane]	1.7 (≈ 4.05 nM)	4.1 (≈ 9.77 nM)	5.7 days	21%	6.0 days	41%	8.0 days	90%	–	–
O=C(O)c1ccccc1C(=O)N1CCC2(CC1)OOC1(O2)C2CC3CC(C2)CC1C3 (centres unmarked) [OZ132, Adamantane-2-spiro-3′-8′-(2′-carboxybenzoyl)-1′,2′,4′-trioxa-8′-azaspiro[4.5]decane]	9.8 (≈ 23.7 nM)	> 10	6.3 days	38%	5.7 days	0%	6.3 days	40%	–	–
c1ccc2c(c1)OCCC21OOC2(O1)C1CC3CC(C1)CC2C3 (centres unmarked) [OZ134, Adamantane-2-spiro-3′-1′,2′,4′-trioxolane-5′-spiro-4″-2″, 3″-dihydro-4″H-1″-benzopyran]	0.88 (≈ 2.8 nM)	1.1 (≈ 3.5 nM)	6.3 days	72%	6.0 days	27%	15.3 days	99.95%	–	–
O=C(O)c1ccc(C2(c3ccc(C(=O)O)cc3)OOC3(O2)C2CC4CC(C2)CC3C4)cc1 (centres unmarked) [OZ135, Adamantane-2-spiro-3′-5′,5′-bis(4′-carboxyphenyl)-1′,2′,4′-trioxolane]	> 100	> 100	5.3/5.3/5.3 days	1%	5.3/5.3/5.3 days	0%	5.3/5.3/5.3 days	0%	–	–
O=C1c2ccccc2C(=O)N1[C@H]1CC[C@]2(CC1)OOC1(O2)C2CC3CC(C2)CC1C3 (some centres unmarked) [OZ136]	23 (≈ 56.2 nM)	21 (≈ 51.3 nM)	6.0/6.0/6.0 days	0/0/0%	6.0/6.0/6.0 days	0/0/0%	6.0/6.0/6.0 days	0/0/0%	–	–
COC(=O)c1ccc(C2(c3ccccc3)OOC3(O2)C2CC4CC(C2)CC3C4)cc1 (centres unmarked) [OZ138, Adamantane-2-spiro-3′-5′-[4′-(methoxycarbonyl)phenyl]-5′-phenyl-1′,2′,4′-trioxolane]	10 (≈ 24.6 nM)	19 (≈ 46.7 nM)	5.7 days	0%	6.3 days	5%	6.3 days	7%	–	–
O=C(OC[C@H]1CC[C@]2(CC1)OOC1(O2)C2CC3CC(C2)CC1C3)n1ccnc1 (stereo partly drawn) [OZ141, cis-Adamantane-2-spiro-3′-1′,2′,4′-trioxaspiro[4.5]decane-8′-methyl imidazole-1-carboxylate]	1.7 (≈ 4.38 nM)	1.9 (≈ 4.89 nM)	8.0 days	98%	8.0 days	97%	8.7 days	99.89%	–	–
CC(C)(C)NC(=O)N1CCC2(CC1)OOC1(O2)C2CC3CC(C2)CC1C3 (centres unmarked) [OZ143, Adamantane-2-spiro-3′-8′-(t-butylaminocarbonyl)-1′,2′,4′-trioxa-8′-azaspiro[4.5]decane]	0.98 (≈ 2.69 nM)	1.8 (≈ 4.94 nM)	6.7 days	48%	6.7 days	44%	9.7 days	99.85%	–	–
